Results published in article PMC9117551 (iScience, 2022).
Read-outs that look alike come from different tables or passages of the source.

Key:
Assay in all cases: SPR
Assay type in all cases: binding
[1] = target: T1, serine hydroxymethyltransferase 2 (SHMT2) (Homo sapiens, UniProt P34897)
T1 sequence (P34897 22-504 limits assumed): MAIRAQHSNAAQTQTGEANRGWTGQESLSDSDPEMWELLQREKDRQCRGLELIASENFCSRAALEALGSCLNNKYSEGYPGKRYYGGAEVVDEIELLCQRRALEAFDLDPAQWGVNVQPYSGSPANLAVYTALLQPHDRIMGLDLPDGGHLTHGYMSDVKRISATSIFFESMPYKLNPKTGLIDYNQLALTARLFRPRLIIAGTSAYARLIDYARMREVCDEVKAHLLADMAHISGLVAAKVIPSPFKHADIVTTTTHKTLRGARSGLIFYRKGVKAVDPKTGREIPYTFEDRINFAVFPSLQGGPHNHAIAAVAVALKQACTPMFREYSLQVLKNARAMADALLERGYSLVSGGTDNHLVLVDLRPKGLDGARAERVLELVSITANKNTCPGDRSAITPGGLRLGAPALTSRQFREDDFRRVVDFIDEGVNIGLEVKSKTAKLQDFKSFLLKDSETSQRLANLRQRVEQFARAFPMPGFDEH

[2] = target: T2, SHMT1 (Homo sapiens, UniProt P34896)
T2 sequence (P34896 2-483): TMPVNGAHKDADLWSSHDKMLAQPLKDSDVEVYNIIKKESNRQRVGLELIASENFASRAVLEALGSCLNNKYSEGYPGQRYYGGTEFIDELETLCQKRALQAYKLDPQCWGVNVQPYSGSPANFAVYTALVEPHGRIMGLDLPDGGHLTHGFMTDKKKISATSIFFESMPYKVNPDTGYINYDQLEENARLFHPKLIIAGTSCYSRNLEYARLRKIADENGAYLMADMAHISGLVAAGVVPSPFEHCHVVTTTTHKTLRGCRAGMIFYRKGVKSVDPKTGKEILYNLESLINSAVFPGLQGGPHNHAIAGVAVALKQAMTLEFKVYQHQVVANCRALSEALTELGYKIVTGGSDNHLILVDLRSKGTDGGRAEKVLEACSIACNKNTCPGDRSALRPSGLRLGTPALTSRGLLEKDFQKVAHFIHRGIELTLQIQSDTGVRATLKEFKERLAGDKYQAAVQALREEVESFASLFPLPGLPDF

[3] = target: T1, serine hydroxymethyltransferase 2 (SHMT2); remark: listed apart in the source

Kd [1]	Kd [2]	Kd [3]	Compound
15.1 µM	–	–	CC1(C)[C@@H](OC(=O)CCC(=O)O)CC[C@]2(C)[C@H]3C(=O)C=C4[C@@H]5C[C@@](C)(C(=O)O)CC[C@]5(C)CC[C@@]4(C)[C@]3(C)CC[C@@H]12 [CBX, Carbenoxolone]
–	2.37 µM	2.9 µM	CC1(C)[C@@H](O)CC[C@]2(C)[C@H]3C(=O)C=C4[C@@H]5C[C@@](C)(C(=O)O)CC[C@]5(C)CC[C@@]4(C)[C@]3(C)CC[C@@H]12 [GA, Glycyrrhetinic acid]
3.51 µM	–	–	Nc1nc2c(c(=O)[nH]1)NC(CNc1ccc(C(=O)N[C@@H](CCC(=O)O)C(=O)O)cc1)CN2 (stereo partly shown) [THF, Tetrahydrofolic acid]
